Laboratory results reported in PMC3401096 (Molecular Biosystems, 2009).
Structures can show the parent of a compound that is named as a salt. Where two headings read alike, the source gives them in different places.

Assays:
JMJD2E [1] = target: T1, JMJD2E (Homo sapiens, UniProt B2RXH2); assay: biochemical
T1 sequence (B2RXH2 1-337): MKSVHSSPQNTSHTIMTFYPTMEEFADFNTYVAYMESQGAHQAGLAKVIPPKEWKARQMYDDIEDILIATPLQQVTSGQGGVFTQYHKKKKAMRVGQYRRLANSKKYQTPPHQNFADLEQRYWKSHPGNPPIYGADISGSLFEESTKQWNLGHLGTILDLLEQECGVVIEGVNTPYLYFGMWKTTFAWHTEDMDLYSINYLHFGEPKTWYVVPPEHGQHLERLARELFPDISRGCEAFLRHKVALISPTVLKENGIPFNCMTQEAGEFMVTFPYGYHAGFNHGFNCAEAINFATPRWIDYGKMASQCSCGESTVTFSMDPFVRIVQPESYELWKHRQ

JMJD2E [2] = target: T1, JMJD2E; assay: miniaturized 1,536-well FDH-coupled JMJD2E qHTS assay; format: biochemical
JMJD2E [3] = target: T1, JMJD2E; assay: kinetic analysis of the mode of inhibition of JMJD2E with respect to 2OG; format: biochemical
JMJD2E [4] = target: T1, JMJD2E

Row | Compound | IC50 (JMJD2E [4]) [µM] | αKi (JMJD2E [3]; uncompetitive with respect to 2OG) | IC50 (JMJD2E [1]) [µM] | IC50 (JMJD2E [2]) [µM] | mode of inhibition of JMJD2E with respect to 2OG (JMJD2E [3])
1 | O=c1cc(-c2ccccc2)oc2cc(O)c(O)c(O)c12 [Baicalein] | – | – | 4.5 | 4 | noncompetitive
2 | NCCc1ccc(O)c(O)c1 [Dopamine hydrochloride] | – | – | 2.2 | 7.1 | –
3 | O=C(O[C@@H]1Cc2c(O)cc(O)cc2O[C@@H]1c1cc(O)c(O)c(O)c1)c1cc(O)c(O)c(O)c1 [Epigallocatechin gallate] | 3 | – | – | – | –
4 | Oc1cc(O)c2c(c1)O[C@H](c1cc(O)c(O)c(O)c1)[C@H](O)C2 [Epigallocatechin] | – | – | – | 5 | –
5 | Oc1ccc(C2CNCCc3c2cc(O)c(O)c3Cl)cc1 (stereo not shown) [Fenoldopam bromide] | – | – | 10.1 | 7.9 | –
6 | NCCc1cc(O)c(O)cc1O [Oxidopamine Hydrochloride] | – | – | 12.2 | 4 | –
7 | CC1(C)CCC2=C(O1)c1ccccc1C(=O)C2=O [beta-Lapachone] | – | – | 8.4 | 3.6 | –
8 | Oc1cc2c(cc1O)[C@@H]1c3ccc(O)c(O)c3OC[C@]1(O)C2 [hematoxylin] | – | – | 3.4 | 2 | –

Further lines, with some results ahead:

Row | IC50 (JMJD2E [4]) [µM] | αKi (JMJD2E [3]; uncompetitive with respect to 2OG) | Compound | IC50 (JMJD2E [1]) [µM] | IC50 (JMJD2E [2]) [µM] | mode of inhibition of JMJD2E with respect to 2OG (JMJD2E [3])
9 | 6.1 | – | C[C@](N)(Cc1ccc(O)c(O)c1)C(=O)O [L-Methyldopa] | – | – | –
10 | 7.5 | 1.98 ± 0.17 | S(−)-Carbidopa | – | – | uncompetitive
